One test deals with SH-5YSY cells. Put plainly: Blasticidin sensitivity of SH-5YSY cells. Type of test: cell-based, human.
Conditions: not given
The source says: SH-5YSY human neuroblastoma cell line was obtained from the American Tissue Culture collection (ATCC). The cells were expanded and frozen for long term storage. A commercially available expression vector containing the NF-kB promoter enhancer region driving the firefly lucipherase gene expression (see FIG. 1) was obtained. This plasmid was designed for transient expression studies and was devoid of any antibiotic-resistance conferring gene. A second plasmid containing the gene conferring resistance to blasticidin was also used. A dual transfection approach to obtain stable cell lines was employed. Prior to transfection, blasticidin sensitivity of the cell line was performed (See FIG. 2). It was determined that SH-5YSY cells were sensitive to the antibiotic toxicity and that 3 μg/ml caused total cell death (FIG. 2). After expanding and purifying adequate quantities of these plasmids, SH-5YSY cells were co-transfected with the above two plasmids and the clonal selection of the transfected cells in the presence of blasticidin proceeded. […] The optimal conditions for this assay to be carried out in a high throughput setting has been determined. Initially, the optimal number of cells needed was assessed. […] This cell line allows growing large scale quantities of cells fairly easily.
`CN(CC[C@H](N)CC(=O)N[C@H]1C=C[C@H](n2ccc(N)nc2=O)O[C@@H]1C(=O)O)C(=N)N` [blasticidin]: the “concentration causing total cell death” value came to 3 µg/mL.

Another test deals with NF-kB. Put plainly: NF-kB promoter-driven firefly luciferase reporter assay in SH-5YSY clone C1. In kind it is cell-based, human. Conditions: 0.625 up to 40 ng/ml. The source says:
SH-5YSY human neuroblastoma cell line was obtained from the American Tissue Culture collection (ATCC). The cells were expanded and frozen for long term storage. A commercially available expression vector containing the NF-kB promoter enhancer region driving the firefly lucipherase gene expression (see FIG. 1) was obtained. This plasmid was designed for transient expression studies and was devoid of any antibiotic-resistance conferring gene. A second plasmid containing the gene conferring resistance to blasticidin was also used. A dual transfection approach to obtain stable cell lines was employed. Prior to transfection, blasticidin sensitivity of the cell line was performed (See FIG. 2). It was determined that SH-5YSY cells were sensitive to the antibiotic toxicity and that 3 μg/ml caused total cell death (FIG. 2). After expanding and purifying adequate quantities of these plasmids, SH-5YSY cells were co-transfected with the above two plasmids and the clonal selection of the transfected cells in the presence of blasticidin proceeded. Several clones were identified that were both resistant to blasticidin and expressed the firefly luciferase upon exposure to TNF-α, □ a known inducer of NF-kB (See FIG. 3). After several assessments, a clone, C1, which expressed high levels of stimulated-luciferase expression and maintained it over time (see FIG. 3) was identified. To date, this clone has been in culture for over 37 passages without significant decline of the gene of interest induction. The optimal conditions for this assay to be carried out in a high throughput setting has been determined. Initially, the optimal number of cells needed was assessed. In FIG. 4 it is shown the effect of using a range of cells from 10,000 to 40,000. […] The assays has have been implemented using a similar cell density for HTS analysis without excessive problems. This cell line allows growing large scale quantities of cells fairly easily.
Successively, the optimal time of incubation and media requirements were assessed. […] These conditions are relatively affordable in HTS settings. Finally, since during robotic handling the plates containing the cells spend a significant amount of time outside the incubator and since phenol red could interfere with the reagents in the luciferase activity assay kit, the effect of using a phenol red free HEPES-buffered media was assessed. As shown in FIG. 5 there is a very little effect of phenol red free, HEPES-buffered media on the assay response and dynamic range. Therefore, the assessment is that it is possible to run this assay using these more forgiving media. Since the compounds contained in the most commonly used libraries are dissolved in DMSO, the effect of DMSO on both luciferase expression in response to TNF-α and C1 clone survival during assay simulations was characterized. The effect of increasing concentration of DMSO ranging from 0.05% through 0.5% on TNF-α induction of luciferase (black line and black scale) is shown in FIG. 6. Also the effect of DMSO on baseline expression of luciferase in the C1 clone is shown in FIG. 6 (gray line and gray scale). In FIG. 7, it is shown the effect of DMSO on cell survival in the same conditions described in FIG. 6. In these experimental settings cells, settled for 24 hours, and then were incubated for an additional 24 hours with DMSO at the indicated concentrations. At the end of the incubation phase cell viability was assessed using the commercially available kit Cell Titer Glo™ following the manufacturer instructions ([…]). […] Finally, the effect of different concentrations of TNF-α was studied in the clone C1.
Essential to development of an assay for high throughput screening is the assessment of Z′ values. This statistical parameter assesses the possibility that data obtained in a single well are statistically significant. In general, assays can generate negative and positive Z′ values. Negative Z′ values indicate a very unpredictable assay. […]
With TNF-α [reference compound], the “luciferase expression in C1 cells” value was “linear increase”.

The same test, now with this note: Homo sapiens; SH-5YSY clone C1, NF-kB luciferase reporter.
The IC50 is the midpoint of a concentration-inhibition curve. `Cc1ccc2nc(-c3ccc(NS(=O)(=O)c4ccccc4OC(F)(F)F)cc3)sc2c1` [AB00003451]: the IC50 was determined as 0.156 µM.
For `Cc1ccc2nc(-c3ccc(NS(=O)(=O)c4ccc(F)c(Cl)c4)cc3)sc2c1` [AB00011625], half-maximal inhibition (IC50) required 0.111 µM. The IC50 values of the last two compounds are within 1.5-fold of each other.
The compound `COc1cc(C)c(S(=O)(=O)Nc2ccc(-c3nc4ccc(C)cc4s3)cc2)c(C)c1C` [AB00012207] showed an IC50 of 0.155 µM.
Compound `COc1ccccc1C1CCN(C(=O)NCCc2ccccc2)CC1` [AB00013805] displayed an IC50 of 0.067 µM.
Still for that read-out and setting: the value for `C=C(C)CN(CC)C(=O)Nc1ccc(-c2ccccc2)cc1` [AB00022459] was 0.065 µM; that for `COc1cccc(-c2nnc(-c3ccccc3NS(=O)(=O)c3ccc(NC(C)=O)cc3)o2)c1` [AB00027137] was 0.13 µM; that for `COc1ccc(-c2coc3cc(OC)cc(O)c3c2=O)cc1` [AB00052939] was 1.73 µM.
On the same count and under the same terms, the figure for `Nc1nc(-c2ccc(-c3ccccc3)cc2)cs1` [AB00074195] is 0.122 µM; for `COC(=O)c1sc2nc(-c3ccccc3)ccc2c1N` [AB00079098] it is 0.067 µM.
On the same count and under the same terms, the figure for `Cc1ccc(-c2csc(Nc3ccccc3)n2)cc1` [AB00079697] is 0.142 µM; for `O=C1/C(=C\c2ccco2)Sc2ccccc21` [AB00083422] it is 3650 µM; for `O=C1/C(=C\c2ccc(O)cc2)Sc2ccccc21` [AB00083765] it is 3.72 µM.
The compound `Clc1ccc(-c2nnc(-c3ccccc3Cl)o2)cc1` [AB00084000] yielded an IC50 of 0.062 µM.
For `O=C(/C=C/Nc1cc(Cl)ccc1O)c1ccccc1` [AB00087011], the IC50 was 0.213 µM.
`Cc1ccc(/C=C2/SC(=S)N(CCC(=O)Nc3ccc(O)cc3)C2=O)cc1` [AB00089877] came in with an IC50 of 1310 µM.
As for `S=C(c1ccc(-c2ccc(Cl)c(Cl)c2)o1)N1CCOCC1` [AB00091724], half-maximal inhibition (IC50) was put at 5.19 µM.
The compound `S=C(c1ccc(-c2ccc(Cl)cc2)o1)N1CCOCC1` [AB00092070] came in with an IC50 of 0.775 µM.
As to `S=C(c1ccc(-c2cccc(Cl)c2)o1)N1CCOCC1` [AB00092117], the IC50 was 3.4 µM.
On the same count and under the same terms, the figure for `Oc1ccccc1C1NN=C(c2ccccc2)S1` (stereo not drawn) [AB00092734] is 0.382 µM; for `Clc1ccc(C2NN=C(c3ccccc3)S2)cc1` (stereo not drawn) [AB00093093] it is 4.06 µM.
In the case of `Oc1ccc2ccccc2c1C1NN=C(c2ccccc2)S1` (stereo not drawn) [AB00093094], the IC50 was 0.788 µM. This IC50 is about 5.2-fold lower than that of the compound before.
Same read-out and setting: the value for `COc1ccc(-c2noc(-c3cccc(OC)c3)n2)cc1` [AB00093467] was 0.082 µM; that for `COc1ccccc1-c1nc(-c2ccccc2Cl)no1` [AB00093511] was 0.079 µM.
In turn, `COc1ccccc1-c1nc(-c2ccc(C)cc2)no1` [AB00093558] yielded an IC50 of 0.1 µM.
In turn, `Fc1ccc(-c2cn3ccsc3n2)cc1` [AB00093742] came in with an IC50 of 0.382 µM.
`Brc1cccc(-c2cn3ccsc3n2)c1` [AB00093745] registered an IC50 of 0.251 µM. Compared with the last compound, the IC50 is about 1.5-fold lower.
Turning to `CC(C)(C)c1ccc(-c2csc(N)n2)cc1` [AB00095939], the IC50 stood at 0.133 µM.
With `O=c1[nH]c(/C=C/c2ccc(O)cc2)nc2ccccc12` [AB00097657], the IC50 was determined as 0.064 µM. This IC50 lies about 2.1-fold lower than the previous one.
`Cc1ccc(-c2csc(Nc3ccc(C(=O)O)cc3)n2)cc1C` [AB00097765] displayed an IC50 of 0.062 µM.
Still for that read-out and setting: the value for `CCC(=O)NC(c1ccccc1Cl)c1ccc2cccnc2c1O` (stereo not drawn) [AB00100961] was 3.97 µM.
Take `CCC(=O)NC(c1ccc(C)cc1)c1ccc2cccnc2c1O` (stereo not drawn) [AB00101018]: 3.17 µM corresponded to half-maximal inhibition (IC50).
Turning to `CCC(=O)NC(c1cccc([N+](=O)[O-])c1)c1ccc2cccnc2c1O` (stereo not drawn) [AB00101133], half-maximal inhibition (IC50) required 3.7 µM.
`COc1ccc(-c2csc(Nc3ccc(N(C)C)cc3)n2)cc1` [AB00101290] yielded an IC50 of 0.144 µM.
The same measure, in the same setting: the figure for `O=C(O)c1ccc(-c2nnc(-c3ccccc3Cl)o2)cc1` [AB00101507] is 0.337 µM; for `Cc1ccccc1-c1cc(-c2ccccc2O)n[nH]1` [AB00101695] it is 0.579 µM.
For the compound `O=C(/C=C\Nc1cc(Cl)ccc1O)c1ccc2c(c1)OCO2` [AB00101723], the IC50 was found to be 0.213 µM. This IC50 lies about 2.7-fold lower than the previous one.
Take `COc1ccc(C(=O)/C=C(\C)Nc2ccccc2O)cc1` [AB00102118]: the IC50 was 0.235 µM.
On to `O=C(Nc1ccc(F)cc1)N1CCc2ccccc21` [AB00105762], for which inhibition was half-maximal at 0.18 µM (IC50).
As for `O=C(CCN1C(=O)/C(=C\C=C\c2ccccc2)SC1=S)Nc1cc(Cl)ccc1O` [AB00120582], the IC50 came out at 146 µM.
`O=C(CCN1C(=O)/C(=C\C=C\c2ccccc2)SC1=S)Nc1ccc(C(=O)O)cc1` [AB00121550] registered an IC50 of 0.545 µM.
Still for that read-out and setting: the value for `CN(Cc1cnc2nc(N)nc(N)c2c1)c1ccc(C(=O)N[C@@H](CCC(=O)O)C(=O)O)cc1` [AB00171904] was 0.159 µM; that for `CCOC(=O)CC[C@H](NC(=O)c1ccc(NCc2cnc3nc(N)nc(N)c3c2C)cc1)C(=O)OCC` [AB00174102] was 0.345 µM.
Compound `COc1ccc(-c2cn3c4c(sc3n2)CCCC4)cc1` [AB00315863] registered an IC50 of 0.65 µM.
Compound `Cc1nnc(SCC(=O)Nc2ccc(-c3nc4ccccc4s3)cc2)s1` [AB00317535] displayed an IC50 of 0.328 µM.
The compound `COc1ccc(NC(=O)N2CCc3ccccc32)cc1` [AB00329861] yielded an IC50 of 0.697 µM.
Still for that read-out and setting: the value for `Fc1ccc(-c2nc3n(n2)Cc2ccccc2-3)cc1` [AB00371839] was 0.125 µM; that for `O=c1c(-c2ccc3c(c2)OCCO3)coc2cc(O)cc(O)c12` [AB00390364] was 22.7 µM; that for `c1ccc(CSCc2cn3ccsc3n2)cc1` [AB00421150] was 12.6 µM.
Take `Clc1c(CSc2nc3ccccc3o2)nc2sccn12` [AB00428616]: the IC50 was found to be 2.41 µM. Compared with the last compound, the IC50 is about 5.2-fold lower.
For `CC(C)Oc1cc(O)c2c(=O)c(-c3ccc(O)cc3)coc2c1` [AB00431689], the IC50 was 4.52 µM.
On the same count and under the same terms, the value for `Oc1ccccc1-c1cc(-c2ccc3c(c2)OCCO3)[nH]n1` [AB00440877] was 0.639 µM.
Take `COc1cc(NCc2cnc3nc(N)nc(N)c3c2C)cc(C(F)(F)F)c1` [AB00443206]: half-maximal inhibition (IC50) was put at 0.123 µM.
Still for that read-out and setting: the figure for `COc1ccc(-c2cc(-c3ccccc3O)[nH]n2)cc1` [AB00461411] is 0.968 µM; for `Brc1ccc(-c2cn3ccccc3n2)s1` [AB00528862] it is 0.094 µM; for `Cc1ccc(/C=C2\Sc3ccccc3C2=O)s1` [AB00534272] it is 5.98 µM.
On to `Cc1ccc2nc(-c3ccc(NC(=O)COC(=O)c4cncc(Br)c4)cc3)sc2c1` [AB00542926], for which the IC50 came out at 0.393 µM. Compared with the last compound, the IC50 is about 15-fold lower.
`COCCNc1nc(-c2cc3ccccc3o2)cs1` [AB00546194]: half-maximal inhibition (IC50) was put at 1.4 µM.
`C=CCNc1nc(-c2cc3ccccc3o2)cs1` [AB00546606]: the IC50 was found to be 0.598 µM. This IC50 lies about 2.3-fold lower than the previous one.
The compound `Cc1ccc2nc(-c3ccc(NC(=O)CCN4C(=O)c5ccccc5C4=O)cc3)sc2c1` [AB00547004] returned an IC50 of 0.155 µM. Against the preceding compound, the IC50 is about 3.9-fold lower.
`c1ccc2oc(-c3csc(N4CCOCC4)n3)cc2c1` [AB00613917]: the midpoint of inhibition, the IC50, lay at 0.966 µM.
With `CC(=O)CSc1nc2cc3c(cc2cc1C#N)OCCO3` [AB00614173], half-maximal inhibition (IC50) was put at 0.104 µM.
Regarding `Cc1ccc(NC(=O)N2CCc3ccccc32)cc1C` [AB00616066], the IC50 stood at 0.361 µM. This IC50 lies about 3.5-fold higher than the previous one.
Take `O=C(Nc1ccc2c(c1)OCCO2)Nc1ccc2c(c1)OCO2` [AB00616088]: 0.114 µM corresponded to half-maximal inhibition (IC50).

The test system of the next test is I-kB and NF-kB p65. Put plainly: Effect on I-kB and NF-kB p65 in cytoplasm and nucleus (FIG. 14). In kind it is cell-based. Conditions: FIG. 14 A. An excerpt:
A) I-kB was not affected by CMPD exposure while it was reduced by TNF. B) CMPDs increased cytoplasmic NF-kB p65. C) CMPDs increased nuclear localization of NF-kB p65. D) The sum of CMPD effects on P65 in the cytoplasm and in the nucleus.
For TNF-α [reference compound], the I-kB result is reported as “reduced”.
